Laboratory results reported in patent publication US10434086B2, “Combination therapies with curaxins” (Incuron, Inc., priority 2014, dated 2019).
Like-named read-outs stand apart in the source and are kept apart here.

Assays:
[1] = test system: patient-derived PDA #13756 tumors; test: PDA #13756 study: CBL0137/gemcitabine against patient-derived pancreatic tumor engrafts; format: in vivo, SCID mice
Text: (§1) Seventy and sixty female athymic nude mice were obtained for each H1975 Non-Small Cell Lung Cancer Xenograft study and split into treatment groups consisting of 10 animals per group (2 cages of 5 mice per cage).
(§2) Preparation and subcutaneous implantation of tumor pieces: HepG2 tumors (passage 2 for HepG2 study and passage 1 for HepG2 (sub-dose CLB0137) study) or Hep3B tumors (passage 1 for Hep3B study and passage 9 for Hep3B (sub-dose CLB0137) study) were propagated in athymic nude mice and harvested from euthanized mice when they reached ˜500-900 mm^3. PDA tumors (passage 6) were propagated in SCID mice (both flanks) and harvested from euthanized mice when they reached ˜600-700 mm^3 in size. Harvested tumors were transferred to a sterile Petri dish containing RPMI-10% FBS medium or D-PBS plus penicillin/streptomycin. Enough media was added to bathe the tumor in order to ensure the viability of the transplant material. Tumors were dissected into 2 mm×2 mm cubes using a sterile scalpel. Care was taken to make the pieces as uniform in size and shape as possible. Tumor pieces were implanted into recipient mice immediately after being prepared.
(§3) Tumor Size Measurements: Tumor size was measured by digital caliper in two dimensions (in mm): maximum length (l) and maximum width (w) taken perpendicular to one another. The measurements were used to calculate tumor volume according to the formula: tumor volume=(l×w2)/2 (w<l). The value obtained by this formula is also equal to the mass of the tumor in mg. Starting 2 days after tumor implantation, tumor measurements were made every 2-3 days prior to treatment initiation and then twice per week (e.g., on Day 1 (D1, the day of treatment initiation), D4, D8, D11, D15, D18, D22, D25, D29, D32, D36, D39, D43, D46, D50, D53 and D57). Tumor measurements were collected more frequently when tumor size approached the tumor size endpoint in order to prevent passing the endpoint between scheduled measurements.
(§4) Administration of test and control articles: Mice were administered the designated solutions when the mean tumor volume per treatment group was ˜45-200 mm^3.
The volume of dosing solution administered ip or iv was 8 ml/kg mouse body weight. Intravenous injections were performed via the tail vein. […]
Monitoring and Sample Collection: Twice daily, mice were monitored for mortality and morbidity for the duration of the experiment. […] All abnormal observations were documented and semi-quantitative scores were assigned for “body condition,” “posture,” and “activity.” Scores of 4, 3, 2, and 1 were assigned to normal conditions (4), and slightly (3), moderately (2) and severely (1) abnormal conditions, respectively. […]
Data analysis: For all study groups, maximum tumor growth inhibition was calculated for Day 11, 13, or 15 (Day X). […] For each tumor, relative tumor size was calculated relative to its size on Day 1 when treatment was initiated (i.e., fold tumor growth). […] Differences in tumor sizes between groups were determined using ANOVA analysis (GraphPad Prism 5 Software) where “*” refers to P=0.01-0.05 (significant), “**” refers to P=0.001-0.01 (very significant) and “***” refers to P<0.001 (extremely significant), Differences that were not statistically significant are indicated with “ns”. […] Tumor growth delay (T−C) was calculated by subtracting the median time for the control to reach the 1000 mm^3 size endpoint from that of the median time for the treated groups to reach the size endpoint.

[2] = test system: patient-derived PDA #13590 tumors; test: PDA #13590 study: CBL0137/gemcitabine against patient-derived pancreatic tumor engrafts; format: in vivo, SCID mice
Text: as §1, §2, §3, §4
The volume of dosing solution administered ip or iv was 8 ml/kg mouse body weight. Intravenous injections were performed via the tail vein. Administration of drugs was done slowly without force on the syringe.
Monitoring and Sample Collection: Twice daily, mice were monitored for mortality and morbidity for the duration of the experiment. […] All abnormal observations were documented and semi-quantitative scores were assigned for “body condition,” “posture,” and “activity.” Scores of 4, 3, 2, and 1 were assigned to normal conditions (4), and slightly (3), moderately (2) and severely (1) abnormal conditions, respectively. Cages were taken to a laminar flow hood and opened in order to clearly assess mouse activity.
Data analysis: For all study groups, maximum tumor growth inhibition was calculated for Day 11, 13, or 15 (Day X). […] For each tumor, relative tumor size was calculated relative to its size on Day 1 when treatment was initiated (i.e., fold tumor growth). To calculate the maximum tumor growth inhibition for each tumor, the following equation was used: 100−(fold tumor growth drug-treated Day X/mean fold tumor growth vehicle-treated Day X)*100. Differences in tumor sizes between groups were determined using ANOVA analysis (GraphPad Prism 5 Software) where “*” refers to P=0.01-0.05 (significant), “**” refers to P=0.001-0.01 (very significant) and “***” refers to P<0.001 (extremely significant), Differences that were not statistically significant are indicated with “ns”. […] Tumor growth delay (T−C) was calculated by subtracting the median time for the control to reach the 1000 mm^3 size endpoint from that of the median time for the treated groups to reach the size endpoint.

H1975 NSCLC tumors = test system: H1975 NSCLC tumors
Experimental: as §1
Description of H1975 NSCLS test material: Human H1975 NSCLC cell line (originally from ATCC) suspension was mixed 1:1 with Matrigel at 5×10^7 cells/ml (5×10^6 cells delivered per 100 μl injection) and kept on ice until inoculation.
For the NSCLC studies, solutions were prepared in two lots (once per 2 weeks) to ensure that fresh solutions were used throughout the study.
Preparation and inoculation of tumor cells: The night before inoculation, the Matrigel was placed on ice in the refrigerator to thaw. Prior to the start of cell harvesting, a supply of pipettes, tubes and tips were placed into the freezer so that they were cold when it was time to work with the Matrigel. One ml syringes and ½″ 23 G needles were also pre-chilled. This step was necessary to prevent premature solidification of Matrigel, which becomes solid at room temperature or higher (i.e., 37° C.).
H1975 cell suspension was prepared immediately before tumor inoculation in PBS. H1975 cells at passage 16 were harvested from forty 150 mm diameter dishes and diluted to 10×10^7 cells/ml in PBS (5.87 ml). Just prior to inoculation, using pre-chilled tips and tubes, 4.5 ml of this cell suspension was mixed with an equal volume of Matrigel (1:1) to a total volume of 9 mL Cell suspensions were kept on ice. The final concentration of cells was […].
Prior to inoculation of mice, the tumor cell-Matrigel mixture was carefully mixed by inverting the tube several times. A pre-chilled 1 nil syringe was filled with tumor cell-Matrigel mixture and then a pre-chilled ½″ 23 G capped needle was attached to the end of syringe to perform the injection. The closed filled syringe was inverted several times and then 100 μl of the cell-Matrigel mixture was inoculated subcutaneously into the left flank of each mouse.
For inoculation, mice were anesthetized with isoflurane (3-4% induction in 100% O2, 1-2% maintenance) to aid in proper subcutaneous inoculation.
as §3, §4
For all groups, Q4 d dosing was performed on D1, 05, 09, 013, 017, 021, 025, and 029 of the study. For groups that received only one drug rather than both, the vehicle for the drug that was not given was administered in its place as a mock administration. The volume of dosing solution administered ip or iv was 8 ml/kg mouse body weight. Intravenous injections were performed via the tail vein. Administration of drugs was done slowly without force on the syringe.
Monitoring and Sample Collection: Twice daily, mice were monitored for mortality and morbidity for the duration of the experiment. […] All abnormal observations were documented and semi-quantitative scores were assigned for “body condition,” “posture,” and “activity.” Scores of 4, 3, 2, and 1 were assigned to normal conditions (4), and slightly (3), moderately (2) and severely (1) abnormal conditions, respectively.

A549 = A549 engraft experiment; format: in vivo; details: one engraft experiment

Nc1ccn([C@@H]2O[C@H](CO)[C@@H](O)C2(F)F)c(=O)n1 [gemcitabine]
mean fold tumor growth ([1]; Day 15, gemcitabine 40 mg/kg ip Q4d, CBL0137 80 mg/kg iv 1×/wk, 4 weeks): 0.55 fold
tumor growth (in words) ([1]; Day 29): regression of all tumors
mean fold tumor growth ([1]; Day 54): 26.7 fold
individual tumors regressed or disappeared ([1]; by Day 15): 8/10
animal survival time ([1]; gemcitabine 40 mg/kg ip Q4d, CBL0137 80 mg/kg iv 1×/wk): 54 days
individual tumors showing regression or disappeared ([2]; Day 29, vehicle 1/9): 6/6
mean fold tumor growth ([2]; Day 57): 7.91±2.7 fold
mean fold tumor growth ([2]; Day 71): 12.98±3.9 fold
animals surviving to the end of the study ([2]; Day 88, vehicle 0/5): ¼
antitumor efficacy (in words) ([2]; PDA #13590): effective against PDA #13590 tumor growth as single agents
median survival time (MST) ([2]; vehicle 46 days, study end Day 88): 76.5 days
median time to reach endpoint (H1975 NSCLC tumors; 2000 mm^3 size endpoint, vehicle 15.6 days): 47.8 days
individual tumors smaller than at start of treatment on Day 1 (H1975 NSCLC tumors; Day 5, vehicle 1/9): 9/10
tumor growth inhibition (H1975 NSCLC tumors; Day 15): 88.8%
mean fold tumor growth (H1975 NSCLC tumors; Day 15, vehicle 8.52-fold): 0.958 fold
tumor growth inhibition (H1975 NSCLC tumors; Day 22): 82.6%
mean fold tumor growth (H1975 NSCLC tumors; Day 22, CBL0137 70 mg/kg iv Q4d, gemcitabine 40 mg/kg ip Q4d, vehicle 15.2): 2.7 fold
mean fold tumor growth (H1975 NSCLC tumors; Day 39): 3.66 fold
delay in tumor growth (relative to vehicle treatment) (H1975 NSCLC tumors; mouse, in vivo): 32.2 days
signs of morbidity (H1975 NSCLC tumors; mouse, in vivo): no signs of morbidity
toxicity, cage-side observations (H1975 NSCLC tumors; mouse, in vivo): None of the cage-side observations were indicative of any toxicity
median survival time (MST) (H1975 NSCLC tumors; vehicle 16 days): 48.5 days
median survival time (MST) (H1975 NSCLC tumors; vehicle 22 days): 51.5 days
response of A549 in engraft experiment (in words) (A549): resistant to gemcitabine
